This is an account of results in patent US20260347843A1, “NERVOUS SYSTEM DELIVERY ENHANCER” (priority 2022, published 2026).

For data set [1], the system named is Aquaporin-4. To be noted: as disclosed in WO2017/150704 and Huber V. J. et al., NeuroReport, 2018; cited from earlier work.
Data set [2] can be described thus: ASO concentration in spinal cord and left hippocampus after intrathecal administration. The class given is in vivo. To be noted: rat, coadministered with Mapt-targeting ASO of Table 2 (76 nmol, 400 μg per rat), 7 days. Here is the method:
In this Example, an ASO having the same configuration as the ASO used in Example 3 (the ASO described in Table 2) was used, and a nucleic acid was prepared by the same method as in Example 1.
The intrathecal administration of ASO and the measurement of the ASO concentration were performed by the following methods. A catheter was inserted into the spinal subarachnoid of an 8-week-old Slc:SD rat (male). When the rat was 9 weeks old, ASO and/or TGN-073 in an amount of 76 nmol (400 μg) per rat ([…]) was administered intrathecally. Hereinafter, the rats to which ASO alone was intrathecally administered are referred to as the “ASO single administration group”, and the rats to which ASO and TGN-073 were intrathecally administered together are referred to as the “ASO/TGN-073 coadministration group”. The spinal part and the left hippocampus were extirpated from the rats at 7 days after the intrathecal administration, and the ASO concentration in each tissue was evaluated by the same method as in Example 1.

The test system of data set [3] is exon 23/intron 23 of dystrophin pre-mRNA. Kind of data set: Exon 23 skipping efficiency in the brain after intraventricular administration. The class given is in vivo, mouse. Particulars: TGN-073 250 μg, hippocampus, striatum, cortex (any site), 7 days. The method, then: The mouse used was a 6-week-old male C57BL/6J mouse having a body weight of 20 g. In the following Examples, all the experiments performed using a mouse were based on n=3. PMO (the PMO single administration group) at 2.5 nmol or 2.5 nmol PMO with 250 μg of TGN-073 added thereto (the PMO/TGN-073 coadministration group) was administered in an amount of 10 μL to the left cerebral ventricle of a mouse.
At 1 week after the intraventricular administration, the mouse was dissected, and the hippocampus, striatum, and cortex (occipital lobe) were extirpated. Subsequently, mRNA was extracted from each tissue, using Isogen II. On the total RNA (900 ng) extracted, One-Step RT-PCR was performed using Qiagen One Step RT-PCR Kit (manufactured by Qiagen N.V.). A reaction solution was prepared in accordance with the protocol attached to the Kit. […]
A reaction product of the above-described RT-PCR, in an amount of 1 μL, was analyzed using Bioanalyzer 2100 (manufactured by Agilent Technologies, Inc.), and using an Agilent DNA1000 kit. The number “A” of moles of the nucleotide of the band skipped by exon 23 and the number “B” of moles of the nucleotide of the band not skipped by exon 23 were measured. On the basis of the measurement values of these “A” and “B”, the skipping efficiency was determined in accordance with the following formula: skipping efficiency (%)=A/(A+B)×100. […]

A short description of data set [4]: IgG antibody concentration in left hippocampus after intraventricular administration (Alexa 647 fluorescence). The class given is in vivo. Particulars: coadministered with IgG antibody (10 μg/mouse), TGN-073 250 μg/mouse, 3 hours. Here is the method:
In this Example, an Alexa 647 fluorescence-labeled IgG antibody (Goat anti-Rabbit IgG (H+L) Highly Cross-Adsorbed Secondary Antibody, Alexa Fluor (trademark)647, #A-21245, Invitrogen) alone or in combination with TGN-073 (250 μg/mouse) was administered at a dose of 10 μg/mouse to the left lateral ventricle of an 8-week-old ICR mouse (female). Hereinafter, the mice to which the IgG antibody alone was intraventricularly administered are referred to as the “IgG antibody single administration group”, and the mice to which the IgG antibody and TGN-073 were intraventricularly administered together are referred to as the “IgG/TGN-073 coadministration group”. Brain tissue samples of the left hippocampus were collected from the mice at 3 hours after the intraventricular administration. Using a fluorescence plate reader (M1000Pro, Tecan Group Ltd.), the Alexa 647 fluorescence intensity per brain weight was measured to thereby evaluate the concentration of the IgG antibody.

Data set [5] concerns Sod1 mRNA. Kind of data set: Sod1 mRNA expression level in the hippocampus after intraventricular administration of siRNA. The class given is in vivo, mouse. To be noted: coadministered with siRNA (7.0 nmol, 100 μg), 7 days.

On to `O=S(=O)(Nc1ncccc1OCc1ccccc1)c1ccccc1` [TGN-073, N-(3-benzyloxypyridin-2-yl)-benzene-sulfonamide], for which, in data set [1], the “Promotion of the function of Aquaporin-4” value is given as “can promote the function of Aquaporin-4”. In data set [2], the “ASO concentration in the left hippocampus vs ASO single administration” value is “dramatic increase” and the “ASO concentration in the spinal part vs ASO single administration” value is on record as “dramatic increase”. Further, the “Exon 23 skipping efficiency vs Chol-HDO (PMO) single administration” value in data set [3] (coadministered with Chol-HDO (PMO) (2.5 nmol)) is listed as “noticeable increase”. Also, the “Exon 23 skipping efficiency vs PMO single administration” value in data set [3] (coadministered with PMO (2.5 nmol)) is “noticeable increase”. Further, the “IgG antibody concentration in the central nervous system (left hippocampus) vs IgG antibody single administration” value in data set [4] is given as “dramatic increase”. Besides, in data set [5], the “Target gene (Sod1) suppression effect in the brain (hippocampus) vs siRNA single administration” value was “marked augmentation”.
